Experimental data published in ChEMBL document CHEMBL4043274, “4-Hydroxy-2-pyridones: Discovery and evaluation of a novel class of antibacterial agents targeting DNA synthesis” (Bioorg Med Chem Lett, 2017).
Converted amounts (≈) assume the structure as drawn.

What was measured:
Escherichia coli [1] = experiment: Antibacterial activity against wild-type Escherichia coli ATCC 25922 by CLSI M100-S17 protocol based method; assay type: functional
Escherichia coli [2] = experiment: Antibacterial activity against quinolone resistant Escherichia coli SKM18 by CLSI M100-S17 protocol based method; assay type: functional
Escherichia coli [3] = experiment: Antibacterial activity against Escherichia coli BAS849 by CLSI M100-S17 protocol based method; assay type: functional
Escherichia coli [4] = experiment: Antibacterial activity against wild-type Escherichia coli ATCC 25922 in presence of human serum albumin by CLSI M100-S17 protocol based method; assay type: functional
[5] = Selectivity ratio of MIC for wild-type Escherichia coli ATCC 25922 to MIC for Escherichia coli BAS849; assay type: functional
Escherichia coli [6] = experiment: Ratio of MIC in presence to absence of HSA for wild-type Escherichia coli ATCC 25922; assay type: functional
Acinetobacter baumannii = experiment: Antibacterial activity against Acinetobacter baumannii ATCC BAA-747 by CLSI M100-S17 protocol based method; assay type: functional
Klebsiella pneumoniae = experiment: Antibacterial activity against Klebsiella pneumoniae ATCC 35657 by CLSI M100-S17 protocol based method; assay type: functional
Staphylococcus aureus [7] = experiment: Antibacterial activity against multidrug resistant Staphylococcus aureus by broth microdilution assay; assay type: functional
Escherichia coli [8] = experiment: Antibacterial activity against wild-type Escherichia coli ATCC 25922 infected in iv dosed CD-1 mouse assessed as mouse survival treated for 1 hr followed by reinfection with bacteria measured at 96 hrs post infection; assay type: functional; details: ATCC 25922, iv, read-out: PD50
Staphylococcus aureus [9] = experiment: Antibacterial activity against wild-type Staphylococcus aureus ATCC 29213 by CLSI M100-S17 protocol based method; assay type: functional
[10] = Selectivity ratio of MIC for quinolone resistant Escherichia coli SKM18 to MIC for wild-type Escherichia coli ATCC 25922; assay type: functional
[11] = Inhibition of Escherichia coli ATCC 25922 topoisomerase-4 ParC at 100 uM using kinetoplast DNA as substrate after 60 mins relative to control
Escherichia coli [12] = experiment: Antibacterial activity against clinical isolates of Escherichia coli by broth microdilution assay; assay type: functional
Rattus norvegicus = experiment: Dose normalized AUC (0 to 24 hrs) in Sprague-Dawley rat at 10 mg/kg, iv administered as single dose; assay type: ADME, organism-based; details: in vivo
[13] = Terminal half life in Sprague-Dawley rat at 10 mg/kg, iv administered as single dose; assay type: ADME, organism-based; details: in vivo, read-out: beta t1/2 (converted)
[14] = Volume of distribution at steady state in Sprague-Dawley rat at 10 mg/kg, iv administered as single dose; assay type: ADME, organism-based; details: in vivo, read-out: Vdss
[15] = Oral bioavailability in Sprague-Dawley rat; assay type: ADME, organism-based; details: in vivo
[16] = Protein binding in mouse plasma; assay type: ADME, cell-free; details: read-out: PPB (converted)

Row | SMILES | MIC (Escherichia coli [1]) [µg/mL] | MIC (Escherichia coli [2]) [µg/mL] | MIC (Escherichia coli [3]) [µg/mL] | MIC (Escherichia coli [4]) [µg/mL] | Ratio (Escherichia coli [6]) | MIC (Acinetobacter baumannii) [µg/mL] | MIC (Klebsiella pneumoniae) [µg/mL] | also measured
1 | CCc1c(-c2ccc(N3CC=CC3)cc2)[nH]c(=O)c(C(=O)O)c1O | 0.78 (≈ 2.39 µM) | > 62.5 | 0.01 (≈ 0.0306 µM) | 32.2 | – | – | – | Selectivity ratio [5]: > 50
2 | CCn1cc(C(=O)O)c(=O)cc1-c1ccc(N(C)C)cc1 | 6.3 (≈ 22 µM) | > 62.5 | 0.39 (≈ 1.36 µM) | – | – | – | – | –
3 | CCc1c(-c2ccc(N3CCCC3)cc2)[nH]c(=O)c(C(=O)O)c1O | 1.6 (≈ 4.87 µM) | > 62.5 | 0.03 (≈ 0.0914 µM) | > 62.5 | >30 - 40 | – | – | Selectivity ratio [5]: > 50
4 | CCc1c(-c2ccc(N3CC4CC4(N)C3)cc2)[nH]c(=O)c(C(=O)O)c1O (configuration not stated) | 1.6 (≈ 4.5 µM) | 6.3 (≈ 17.7 µM) | 0.04 (≈ 0.113 µM) | > 12.5 | – | 6.3 (≈ 17.7 µM) | 3.1 (≈ 8.72 µM) | –
5 | COc1c(N2C[C@@H]3CCCN[C@@H]3C2)c(F)cc2c(=O)c(C(=O)O)cn(C3CC3)c12 [MOXIFLOXACIN] | – | – | – | – | – | – | – | MIC50 (Staphylococcus aureus [7]): 4 µg/mL (≈ 9.96 µM); MIC90 (Staphylococcus aureus [7]): 32 µg/mL (≈ 79.7 µM); ED50 (Escherichia coli [8]): < 3 mg/kg
6 | CCc1c(-c2ccc(N(C)C)cc2)[nH]c(=O)c(C(=O)O)c1OC | > 12.5 | – | 12.5 (≈ 39.5 µM) | – | – | – | – | –
7 | CCc1c(-c2ccc(N(C)C)cc2)n(Cc2ccccc2)c(=O)c2c(O)cc(=O)oc12 | > 12.5 | – | – | – | – | – | – | MIC (Staphylococcus aureus [9]): 3.1 µg/mL (≈ 7.44 µM)
8 | CCc1c(-c2ccc(N3C[C@@H]4[C@H](C3)[C@H]4NC)cc2)[nH]c(=O)c(C(=O)O)c1O | 0.39 (≈ 1.06 µM) | 3.1 (≈ 8.39 µM) | 0.049 (≈ 0.133 µM) | 3.1 | 4 - 8 | 1.6 (≈ 4.33 µM) | 0.39 (≈ 1.06 µM) | –
9 | CCc1c(-c2ccc(N3CCC(C4(N(C)C)CC4)C3)cc2)[nH]c(=O)c(C(=O)O)c1O (configuration not stated) | 6.3 (≈ 15.3 µM) | > 12.5 | 0.04 (≈ 0.0972 µM) | – | 4 - 8 | > 25 | 12.5 (≈ 30.4 µM) | –
10 | CN(C)c1ccc(-c2[nH]c(=O)c(C(=O)O)c(O)c2Cc2ccccc2)cc1 | > 12.5 | – | > 12.5 | – | – | – | – | –
11 | CCc1c(-c2ccc(N3CCC(C4(N)CC4)C3)cc2)[nH]c(=O)c(C(=O)O)c1O (configuration not stated) | 1.6 (≈ 4.17 µM) | – | 0.39 (≈ 1.02 µM) | 12.5 | 4 - 8 | 3.1 (≈ 8.08 µM) | 3.1 (≈ 8.08 µM) | –
12 | CCc1c(-c2ccc(N3CCC(N4CCCC4)C3)cc2)[nH]c(=O)c(C(=O)O)c1O (configuration not stated) | 1.6 (≈ 4.03 µM) | 6.3 (≈ 15.9 µM) | 0.19 (≈ 0.478 µM) | 3.1 | <4 | 3.1 (≈ 7.8 µM) | 1.6 (≈ 4.03 µM) | Selectivity ratio [10]: < 4
13 | CCc1c(-c2ccc(N3CCNCC3)cc2)[nH]c(=O)c(C(=O)O)c1O | 6.3 (≈ 18.3 µM) | 62.5 (≈ 182 µM) | 3.1 (≈ 9.03 µM) | 15.6 | <3 | – | – | –
14 | CCc1c(-c2ccc(N(C)C)c(F)c2)[nH]c(=O)c(C(=O)O)c1O | 7.8 (≈ 24.4 µM) | – | 0.39 (≈ 1.22 µM) | – | – | – | – | –
15 | CCc1c(-c2ccc(N3CCC(C4(N)CCC4)C3)cc2)[nH]c(=O)c(C(=O)O)c1O (configuration not stated) | 1.6 (≈ 4.03 µM) | 0.19 (≈ 0.478 µM) | 0.39 (≈ 0.981 µM) | 12.5 | 4 - 8 | 3.1 (≈ 7.8 µM) | 1.6 (≈ 4.03 µM) | –
16 | CN(C)c1ccc(-c2[nH]c(=O)c(C(=O)O)c(O)c2C2CCCCC2)cc1 | > 62.5 | – | 6.25 (≈ 17.5 µM) | – | – | – | – | –
17 | CCc1c(-c2ccc(N3CCC(C)(CN)C3)cc2)[nH]c(=O)c(C(=O)O)c1O (configuration not stated) | 1.6 (≈ 4.31 µM) | 6.3 (≈ 17 µM) | 0.39 (≈ 1.05 µM) | – | 4 - 8 | – | – | –
18 | CCc1cc(C(=O)O)c(=O)[nH]c1-c1ccc(N(C)C)cc1 | 0.78 (≈ 2.72 µM) | > 62.5 | 0.03 (≈ 0.105 µM) | – | – | – | – | –
19 | CCc1c(-c2ccc(N3CC4CCCNC4C3)cc2)[nH]c(=O)c(C(=O)O)c1O (configuration not stated) | 0.78 (≈ 2.03 µM) | 3.1 (≈ 8.08 µM) | 0.19 (≈ 0.496 µM) | 1.6 | <4 | 1.6 (≈ 4.17 µM) | 0.8 (≈ 2.09 µM) | IC50 [11]: 15.7 µM; MIC (Escherichia coli [12]): 0.125 to 2 µg/mL (≈ 0.326 to 5.22 µM); MIC50 (Escherichia coli [12]): 0.5 µg/mL (≈ 1.3 µM); MIC90 (Escherichia coli [12]): 2 µg/mL (≈ 5.22 µM); MIC (Staphylococcus aureus [7]): 0.125 to 16 µg/mL (≈ 0.326 to 41.7 µM); MIC50 (Staphylococcus aureus [7]): 0.5 µg/mL (≈ 1.3 µM); MIC90 (Staphylococcus aureus [7]): 8 µg/mL (≈ 20.9 µM); AUC/dose (Rattus norvegicus): 13.9 µg·h/mL; half-life [13]: 3.9 h; Vd [14]: 2.9 L/kg; bioavailability [15]: 8%; fraction unbound [16]: 0.27; ED50 (Escherichia coli [8]): > 20 mg/kg
20 | CCc1cc(C(=O)O)c(=O)n(C)c1-c1ccc(N(C)C)cc1 | > 62.5 | > 62.5 | 1.6 (≈ 5.33 µM) | – | – | – | – | –
21 | Cc1c(-c2ccc(N(C)C)cc2)[nH]c(=O)c(C(=O)O)c1O | 31.3 (≈ 109 µM) | 3.1 (≈ 10.8 µM) | 0.39 (≈ 1.35 µM) | – | – | – | – | –
22 | CCc1c(-c2ccc(C)cc2)[nH]c(=O)c(C(=O)O)c1O | > 12.5 | – | 0.78 (≈ 2.85 µM) | – | – | – | – | –
